Data: ChEMBL document CHEMBL5726902, “Heterocyclic kinase inhibitors” (2019)

Target: Macrophage colony-stimulating factor 1 receptor (Homo sapiens, UniProt P07333)
Experiment: In Vitro CSF-1R Kinase Activity: The CSF-1R construct corresponds to recombinant human catalytic domain (aa 538-910), which was purchased from Invitrogen (cat #PV4092). CSF-1R was mixed with peptide substrate (biotin-TYR1, Sequence: Biotin-(Ahx)-GAEEEIYAAFFA-COOH, 4 μM final) at varying inhibitor concentrations in reaction buffer: 50 mM MOPSO pH 6.5, 10 mM MgCl2, 2 mM MnCl2, 2.5 mM DTI, 0.01% BSA, 0.1 mM Na3VO4 and 0.1 mM ATP. After about 60 min incubation at rt, the reaction was quenched by addition of EDTA (final concentration: 100 mM) and developed by addition of detection reagents (final approximate concentrations: 30 mM HEPES pH 7.0, 0.06% BSA, 0.006% Tween-20, 0.24 M KF, 80 ng/mL PT66K (europium labeled anti-phosphotyrosine antibody cat #61T66KLB Cisbio, Bedford, Mass.) and 0.6 μg/mL SAXL (Phycolink streptavidin-allophycocyanin acceptor, cat #PJ25S, Prozyme, San Leandro, Calif.). The developed reaction was incubated in the dark for about 60 min at rt, then read via a time-resolved fluorescence detector (Rubystar, BMG) using a 337 nm laser for excitation and monitoring emission wavelength at 665 nm. Within the linear range of the assay, the observed signal at 665 nm was directly related to phosphorylated product and can be used to calculate the IC50 values.

Macrophage colony-stimulating factor 1 receptor, sequence (P07333 whole entry, the tested form may be a part): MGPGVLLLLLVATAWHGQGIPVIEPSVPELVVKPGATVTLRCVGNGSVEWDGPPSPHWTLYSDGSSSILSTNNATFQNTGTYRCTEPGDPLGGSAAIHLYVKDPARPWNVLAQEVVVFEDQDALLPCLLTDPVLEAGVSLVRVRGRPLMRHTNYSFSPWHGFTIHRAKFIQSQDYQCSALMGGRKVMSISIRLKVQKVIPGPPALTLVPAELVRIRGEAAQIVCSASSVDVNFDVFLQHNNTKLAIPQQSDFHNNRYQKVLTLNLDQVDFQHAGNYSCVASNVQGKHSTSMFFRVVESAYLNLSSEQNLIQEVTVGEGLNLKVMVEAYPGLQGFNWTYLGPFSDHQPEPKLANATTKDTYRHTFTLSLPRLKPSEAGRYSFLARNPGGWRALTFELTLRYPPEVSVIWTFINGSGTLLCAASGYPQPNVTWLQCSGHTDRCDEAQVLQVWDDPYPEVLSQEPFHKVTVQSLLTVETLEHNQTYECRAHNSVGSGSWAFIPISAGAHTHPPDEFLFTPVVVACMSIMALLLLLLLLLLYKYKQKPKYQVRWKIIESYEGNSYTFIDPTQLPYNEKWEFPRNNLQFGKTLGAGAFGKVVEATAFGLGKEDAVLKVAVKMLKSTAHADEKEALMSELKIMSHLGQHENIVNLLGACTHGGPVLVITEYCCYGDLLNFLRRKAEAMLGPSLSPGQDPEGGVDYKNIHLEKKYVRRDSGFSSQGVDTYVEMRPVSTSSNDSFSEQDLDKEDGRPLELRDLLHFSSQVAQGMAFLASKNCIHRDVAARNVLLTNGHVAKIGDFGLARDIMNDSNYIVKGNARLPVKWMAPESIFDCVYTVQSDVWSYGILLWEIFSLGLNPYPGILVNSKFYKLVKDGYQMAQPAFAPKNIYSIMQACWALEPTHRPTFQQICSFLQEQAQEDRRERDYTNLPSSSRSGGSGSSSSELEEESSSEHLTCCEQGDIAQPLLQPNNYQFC

Compound | IC50
O[C@H]1CC[C@@H](n2cc(Nc3nc(C4CCCCC4)cn4ncnc34)cn2)CC1 | < 0.1 µM
CC1(C)CC(n2cc(Nc3nc(C4CCCCC4)cn4ncnc34)cn2)CC(C)(C)O1 | < 0.1 µM
O[C@H]1CC[C@H](n2cc(Nc3nc(C4CCCCC4)cn4ncnc34)cn2)CC1 | < 0.1 µM
